Data taken from patent US6727227B1, “Tetrapetide revealing geroprotective effect, pharmacological substance on its basis, and the method of its application” (Obschestvo S Ogranichennoi Otvetstven-Nostiju “Klinika …, priority 2002, dated 2004).
Residues, ends and D or L forms follow the SMILES beside them.

Tested on: Drosophila melanogaster of HEM strain
Assay: Reproductive function: share of live and fertile cultures, HEM strain
Assay type: in vivo
Set-up: key to Share of cultures, Live: % of initial test tubes containing live females; key to Share of cultures, Fertile: % of live cultures in which posterity was given
Conditions: for Share of cultures, Fertile / Share of cultures, Live: 0.00001% of medium weight
Protocol: Influence of L-Ala-L-Glu-L-Asp-Gly tetrapeptide (SEQ ID NO: 1) upon Drosophila melanogaster was tested at the stage of larvae of the 2nd-3rd age, by means of adding the preparation to culture medium in dose 0.00001% of the medium weight, which approximately made 0.015 mg/100 ml. The flies, hatched on the 1st day, were placed into test tubes, 5 couples in each, and transferred to fresh medium every 3 to 6 days.
There have been considered the following factors:
The share of the test tubes (of their initial amount), which contained live females (in Table 3—the share of live cultures).
The share of the test tubes (of the number of live cultures), in which posterity was given (in Table 3—the share of fertile cultures).
In each experimental variant 75 parental couples were analysed. The distinctions between fertility indices were defined by means of Fischer exact criterion for 2×2-adjustment tables (24).

SMILES: C[C@H](N)C(=O)N[C@@H](CCC(=O)O)C(=O)N[C@@H](CC(=O)O)C(=O)NCC(=O)O [L-Ala-L-Glu-L-Asp-Gly tetrapeptide, L-alanyl-L-glutamyl-L-aspartyl-glycine] (H-AEDG-OH)
- Coefficient A of lineal regression, fertile culture share on age (y = B + Ax) (HEM strain): −2.5 ± 0.37
- Coefficient A of lineal regression, live culture shares on age (y = B + Ax) (HEM strain): −1.6 ± 0.17
- Coefficient B of lineal regression, fertile culture share on age (y = B + Ax) (HEM strain): 115 ± 11.4
- Coefficient B of lineal regression, live culture shares on age (y = B + Ax) (HEM strain): 137 ± 10.6
- Maximal life span attained (HEM strain): 100 days
- “a”-coefficient of fertile-share regression, control higher than experimental variant (HEM strain): 1.8 times
- Average life span (HEM strain, Table 6): 54 days
- Share of live cultures decreases faster than in controls (HEM strain, regression analysis): 1.5 times
- Extension of the reproduction period (HEM strain, versus control): 1.5 fold
- Duration of the reproductive period (HEM strain, 30 days for cultures not exposed): 47 days
- Share of cultures, Fertile (day 0, HEM strain): 100 + 0.8
- Share of cultures, Fertile (day 6, HEM strain): 100 + 0.8
- Share of cultures, Fertile (day 10, HEM strain): 93 ± 6.9
- Share of cultures, Fertile (day 13, HEM strain): 93 ± 6.9
- Share of cultures, Fertile (day 19, HEM strain): 86 ± 9.4
- Share of cultures, Fertile (day 23, HEM strain): 43 ± 13.2
- Share of cultures, Fertile (day 27, HEM strain): 31 ± 12.9
- Share of cultures, Live (day 27, HEM strain): 93 ± 6.9
- Share of cultures, Fertile (day 32, HEM strain): 36 ± 14.5
- Share of cultures, Live (day 32, HEM strain): 85 ± 10.0
- Share of cultures, Fertile (day 38, HEM strain): 9 ± 8.7
- Share of cultures, Live (day 38, HEM strain): 85 ± 10.0
- Share of cultures, Fertile (day 44, HEM strain): 9 ± 8.7
- Share of cultures, Live (day 44, HEM strain): 85 ± 10.0
- Share of cultures, Fertile (day 50, HEM strain): 9 ± 8.7
- Share of cultures, Live (day 50, HEM strain): 36 ± 12.8
- Share of cultures, Fertile (day 54, HEM strain): 0 + 0.9
- Share of cultures, Live (day 54, HEM strain): 36 ± 12.8
- Share of cultures, Fertile (day 60, HEM strain): 0 + 0.9
- Share of cultures, Live (day 60, HEM strain): 29 ± 12.1
- Share of cultures, Fertile (day 66, HEM strain): 0 + 0.9
- Share of cultures, Live (day 66, HEM strain): 29 ± 12.1
- Share of cultures, Fertile (day 69, HEM strain): 0 + 0.9
- Share of cultures, Live (day 69, HEM strain): 21 ± 10.9
- Share of cultures, Fertile (day 73, HEM strain): 0 + 0.9
- Share of cultures, Live (day 73, HEM strain): 7 ± 6.9
- Share of cultures, Fertile (day 76, HEM strain): 0 + 0.9
- Share of cultures, Live (day 76, HEM strain): 7 ± 6.9
- Share of cultures, Fertile (day 84, HEM strain): 0 + 0.9
- Share of cultures, Live (day 84, HEM strain): 7 ± 6.9
- Share of cultures, Fertile (day 87, HEM strain): 0 + 0.9
- Share of cultures, Live (day 87, HEM strain): 7 ± 6.9
- Share of cultures, Fertile (day 100, HEM strain): 0 + 0.9
- Share of cultures, Live (day 100, HEM strain): 0 + 0.8
